Measured values reported in patent US4012395A, “Process for preparing thiazolidinone acetic acid derivatives” (Warner-Lambert Company, priority 1974, dated 1977).

How the values were obtained:
[1] = tested on: diuresis of conscious dogs; assay: Diuresis in conscious dogs, intragastric administration; assay type: in vivo, dog (unanesthetized adult female Beagle); conditions: for maximal achievable effect on the diuresis (urine excretion): 25.0 mg/kg
Procedure: Experiments were carried out in 5 unanesthetized adult female Beagle dogs, weighing 15 to 22 kg, which were trained to lie on a table without fixation. The animals were not episiotomized. A rubber catheter was introduced into the bladder and excreted urine was collected separately for each animal and the volume measured in 30 minute intervals. After a constant urine flow was achieved, test substances were administered by stomach tube. The diuretics were diluted with saline solution so that a constant volume of 25 ml/kg was reached. Three animals received the test substances and two served as controls. The lowest dose of the diuretics administered was 1.56 mg/kg. Dosages were increased by a factor of 2 up to 50 mg/kg.

[2] = tested on: urine excreted by each kidney, mongrel dogs; assay: Diuresis in anesthetized dogs, intravenous administration; assay type: in vivo, dog (male and female mongrel); conditions: i.v.; for urinary excretion / urinary flow increased to: 32.0 mg/kg; for dose dependency of diuretic effect, r: 2.0 up to 64.0 mg/kg
Procedure: Experiments were performed in male and female mongrel dogs, anesthetized with pentobarbital. The body weight was between 9 and 11 kg. After laparotomy the proximal part of the ureters was canulated and the urine excreted by each kidney collected in periods of 10 minutes. Arterial and venous pressure were recorded throughout the experiment. At the beginning 1.5 ml/kg of a tempered saline solution were infused for one and a half hour. After constant urine-flow was reached, the diuretics were injected into the femoral vein. The initial dose was 2.0 mg/kg which was increased with the factor 2 up to 64.0 mg/kg. Two animals were used for each dose level.

in vivo = conditions: rat, iv
[3] = tested on: potassium excretion in dogs; assay: Influence on potassium excretion (clearance experiments); assay type: in vivo, dog; conditions: anesthetized dogs, with higher amounts of sodium excreted
Procedure: Animals were anesthetized by 30.0 mg/kg pentobarbital intravenously. At the beginning of the experiment one saline solution was infused within 1 hour. In the urine which was collected by using a bladder catheter besides other parameters potassium and sodium concentrations were determined by flame photometry.

mice = assay: Acute toxicity in mice, intragastric; assay type: in vivo, mouse; conditions: aqueous solution, within 48 hours
rats = conditions: rat, in vivo
[4] = Toxicity (general statement); conditions: in vivo

Row | SMILES | maximal achievable effect on the diuresis (urine excretion) [1] | effect of dose increase on urine excretion ([1]; above 25.0 mg/kg) | diuretic activity compared with 3282 [2] | urinary excretion / urinary flow increased to [2] | dose dependency of diuretic effect, r [2] | LD50 (in vivo) | increase of potassium excretion, Furosemide versus […] [3] | dosage up to which none of the animals died (mice) | dosage up to which no deaths were seen (rats) | acute toxicity (in words) [4]
1 | CCOC(=O)/C=C1\SC(N2CCCCC2)C(=O)N1C (stereo not drawn) [Etozolin, ethyl-3-methyl-4-oxo-5-piperidino-Δ^2,α -thiazolidineacetate] | 7.8 ml/animal/min | does not result in a further increase of urine excretion | far less active | 2.25 ml/minute per animal | 0.5583 | 56.6 mg/kg |  |  |  | 
2 | CN1C(=O)C(N2CCCCC2)SC1=CC(=O)O (stereo not shown) [Example 3282, (Z)-3-Methyl-4-oxo-5N-piperidino-thiazolidin-2-ylidene-acetic acid] | 10.9 ml/animal/min |  |  | 16 ml/minute per animal | 0.8799 |  | by far more increased with Furosemide than with 3282 | ≥ 2,250 mg/kg | ≥ 1,000 mg/kg | very favorable
